In patent US20250002866A1, “CELL CULTURE PLATFORMS, METHODS AND USES THEREOF” (ACADEMIA SINICA, priority 2021, published 2025):

What was measured:
[1] = system: CTC spheroid derived from blood samples of patient A; test: Ex vivo drug assay on CTC spheroids of patient A; assay type: cell-based, human; conditions: for diameter and morphology of CTC spheroid: after treatment for 3 days, versus untreated mock group
Description: FIGS. 3A-F show the in vitro drug test results of CTC-derived spheroids and clinical-pathological results of the clinical patient. (A) The drug cytotoxicity assay results on the patient-derived CTC-originated spheroid of patient A. Six chemotherapeutic drugs were tested in this assay include oxaliplatin, docetaxel, doxorubicin, irinotecan, mitomycin-C, and 5-FU. (B and D) The image of the morphology of CTC-derived spheroids after drug panel treatment at day 3. Scale bar=20 μm. (C and E) The normalized viability of CTC-derived spheroids with indicated drug panel after 3 days of treatment. (F) The contrast-enhanced CT images before and after cisplatin/gemcitabine treatment of patient B.
In order to validate the ex vivo drug assay results, we tested single or combination therapeutic agents in CTC cultures derived from blood samples of patients. […] A designed ex vivo drug assay with both used and potential candidate drug panel including oxaliplatin, docetaxel, 5-FU, doxorubicin, mitomycin-c, and irinotecan was accomplished with time-dependent and dose-dependent manner (FIG. 3A). With regard to the cell morphology, the diameter of CTC spheroid derived from blood samples of patient A was about 30˜40 μm with an intact spheroid morphology in untreated mock group. […] The results highly match with the clinical treatment outcomes in the treatment resistance on the clinical used drugs. Therefore, doxorubicin was the related promising candidate drug among the un-used drugs (mitomycin-c and irinotecan) for next line treatment (FIG. 3B). Additional ex vivo drug test was also performed on patient B with urothelium cancer.
Spheroid formation on the culture platform of the invention. Collect the cell sample that would be used for cultivation on the culture platform of the invention in suspension medium. Add cell suspension medium into each well. The cells could be cultured under 37° C. incubator with humidified 5% CO2 atmosphere. Exchange half of the culture medium once or twice per week. The cultured spheroids (tumoroids) enables sustain in the culture platform of the invention for more than two weeks depends on the cell density and demand of the spheroid size.

cancer of patient A = test: Clinical treatment outcome of patient A; assay type: in vivo, human; conditions: previous clinical treatment

SMILES | diameter and morphology of CTC spheroid [1] | clinical treatment outcome (cancer of patient A) | spheroid viability ([1]; CTC spheroids of patient A under drug treatment)
O=c1[nH]cc(F)c(=O)[nH]1 [5-FU, fluorouracil] | smaller than the mock group and became leakage in appearance | progression disease | 
CC(=O)O[C@@]12CO[C@@H]1C[C@H](O)[C@@]1(C)C(=O)[C@H](O)C3=C(C)[C@@H](OC(=O)[C@H](O)[C@@H](NC(=O)OC(C)(C)C)c4ccccc4)C[C@@](O)([C@@H](OC(=O)c4ccccc4)[C@H]21)C3(C)C [docetaxel] |  | progression disease | 
COc1cccc2c1C(=O)c1c(O)c3c(c(O)c1C2=O)C[C@@](O)(C(=O)CO)C[C@@H]3O[C@H]1C[C@H](N)[C@H](O)[C@H](C)O1 [doxorubicin] | obvious broken morphology |  | lower than 4%
O=C1[O][Pt]2([NH][C@@H]3CCCC[C@H]3[NH]2)[O]C1=O [oxaliplatin] | smaller than the mock group and became leakage in appearance | progression disease | 
